The text below walks through data of US8921360B2, “Heterobicycle-substituted azolyl benzene fungicides” (priority 2009, dated 2014).

Type in all cases: in vivo
For experiment [1], the system named is Puccinia recondita f sp. tritici. Kind of experiment: Test B: wheat leaf rust, preventive spray on wheat seedlings. To be noted: Puccinia recondita, 192 h, wheat seedlings sprayed to run-off, inoculated next day, rated after 24 h + 7 days, read-out: Percentage Disease Control Test B. From the text: General protocol for preparing test suspensions for Tests A-G: the test compounds were first dissolved in acetone in an amount equal to 11% of the final volume and then suspended at the desired concentration (in ppm) in acetone and purified water (50/50 mix by volume) containing 250 ppm of the surfactant Trem® 014 (polyhydric alcohol esters). The resulting test suspensions were then used in Tests A-G. Spraying a 200 ppm test suspension to the point of run-off on the test plants was the equivalent of a rate of 800 g/ha. The test suspension was sprayed to the point of run-off on wheat seedlings. The following day the seedlings were inoculated with a spore suspension of Puccinia recondita f sp. tritici (the causal agent of wheat leaf rust) and incubated in a saturated atmosphere at 20° C. for 24 h, and then moved to a growth chamber at 20° C. for 7 days, after which time disease ratings were visually made. Results for Tests A-G are given in Table A. In the Table, a rating of 100 indicates 100% disease control and a rating of 0 indicates no disease control (relative to the controls). A dash (-) indicates no test results. All results are for 200 ppm except where followed by an “*”, which indicates 40 ppm.

Experiment [2] has as its system Puccinia recondita f. sp. tritici. Nature of the experiment: Test C: wheat leaf rust, spray the day after inoculation of wheat seedlings.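 Also: Curative spray on infected wheat seedlings with visual rating 5 days later.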 To be noted: Puccinia recondita, 120 h, wheat seedlings inoculated, sprayed the following day, rated after 5 days, read-out: Percentage Disease Control Test C. The text has this:
General protocol for preparing test suspensions for Tests A-G: the test compounds were first dissolved in acetone in an amount equal to 11% of the final volume and then suspended at the desired concentration (in ppm) in acetone and purified water (50/50 mix by volume) containing 250 ppm of the surfactant Trem® 014 (polyhydric alcohol esters). The resulting test suspensions were then used in Tests A-G. Spraying a 200 ppm test suspension to the point of run-off on the test plants was the equivalent of a rate of 800 g/ha. Wheat seedlings were inoculated with a spore suspension of Puccinia recondita f. sp. tritici (the causal agent of wheat leaf rust) and incubated in a saturated atmosphere at 20° C. for 24 h. The following day, the test suspension was sprayed to the point of run-off on the wheat seedlings and then moved to a growth chamber at 20° C. for 5 days, after which time disease ratings were visually made. Results for Tests A-G are given in Table A. In the Table, a rating of 100 indicates 100% disease control and a rating of 0 indicates no disease control (relative to the controls). A dash (-) indicates no test results. All results are for 200 ppm except where followed by an “*”, which indicates 40 ppm.

A further experiment has as its system Septoria nodorum. Nature of the experiment: Test D: wheat glume blotch, preventive spray on wheat seedlings. To be noted: Parastagonospora nodorum, 216 h, wheat seedlings sprayed to run-off, inoculated next day, rated after 48 h + 7 days, read-out: Percentage Disease Control Test D. From the text:
General protocol for preparing test suspensions for Tests A-G: the test compounds were first dissolved in acetone in an amount equal to 11% of the final volume and then suspended at the desired concentration (in ppm) in acetone and purified water (50/50 mix by volume) containing 250 ppm of the surfactant Trem® 014 (polyhydric alcohol esters). The resulting test suspensions were then used in Tests A-G. Spraying a 200 ppm test suspension to the point of run-off on the test plants was the equivalent of a rate of 800 g/ha. The test suspension was sprayed to the point of run-off on wheat seedlings. The following day the seedlings were inoculated with a spore suspension of Septoria nodorum (the causal agent of wheat glume blotch) and incubated in a saturated atmosphere at 20° C. for 48 h, and then moved to a growth chamber at 20° C. for 7 days, after which time disease ratings were visually made. Results for Tests A-G are given in Table A. In the Table, a rating of 100 indicates 100% disease control and a rating of 0 indicates no disease control (relative to the controls). A dash (-) indicates no test results. All results are for 200 ppm except where followed by an “*”, which indicates 40 ppm.

Another experiment relates to Septoria tritici. Kind of experiment: Test E: wheat leaf blotch, preventive spray on wheat seedlings. To be noted: Zymoseptoria tritici, 456 h; 200 ppm; wheat seedlings sprayed to run-off, inoculated next day, rated after 48 h + 19 days; read-out: Percentage Disease Control Test E. From the text: General protocol for preparing test suspensions for Tests A-G: the test compounds were first dissolved in acetone in an amount equal to 11% of the final volume and then suspended at the desired concentration (in ppm) in acetone and purified water (50/50 mix by volume) containing 250 ppm of the surfactant Trem® 014 (polyhydric alcohol esters). The resulting test suspensions were then used in Tests A-G. Spraying a 200 ppm test suspension to the point of run-off on the test plants was the equivalent of a rate of 800 g/ha. The test suspension was sprayed to the point of run-off on wheat seedlings. The following day the seedlings were inoculated with a spore suspension of Septoria tritici (the causal agent of wheat leaf blotch) and incubated in a saturated atmosphere at 24° C. for 48 h, and then moved to a growth chamber at 20° C. for 19 days, after which time disease ratings were visually made. Results for Tests A-G are given in Table A. In the Table, a rating of 100 indicates 100% disease control and a rating of 0 indicates no disease control (relative to the controls). A dash (-) indicates no test results. All results are for 200 ppm except where followed by an “*”, which indicates 40 ppm.

The subject of a further experiment is Botrytis cinerea. Nature of the experiment: Test F: tomato botrytis, preventive spray on tomato seedlings. To be noted: Botrytis cinerea, topical, 120 h, tomato seedlings sprayed to run-off, inoculated next day, rated after 48 h + 3 days, read-out: Percentage Disease Control Test F. From the text:
General protocol for preparing test suspensions for Tests A-G: the test compounds were first dissolved in acetone in an amount equal to 11% of the final volume and then suspended at the desired concentration (in ppm) in acetone and purified water (50/50 mix by volume) containing 250 ppm of the surfactant Trem® 014 (polyhydric alcohol esters). The resulting test suspensions were then used in Tests A-G. Spraying a 200 ppm test suspension to the point of run-off on the test plants was the equivalent of a rate of 800 g/ha. The test suspension was sprayed to the point of run-off on tomato seedlings. The following day the seedlings were inoculated with a spore suspension of Botrytis cinerea (the causal agent of tomato botrytis) and incubated in saturated atmosphere at 20° C. for 48 h, and then moved to a growth chamber at 27° C. for 3 additional days, after which time disease ratings were visually made. Results for Tests A-G are given in Table A. In the Table, a rating of 100 indicates 100% disease control and a rating of 0 indicates no disease control (relative to the controls). A dash (-) indicates no test results. All results are for 200 ppm except where followed by an “*”, which indicates 40 ppm.

Take `O=CNCc1cc(-c2ccn(-c3ccc4c(c3)CCCO4)n2)ccc1Cl` [Compound 3, N-[[2-chloro-5-[1-(3,4-dihydro-2H-1-benzopyran-6-yl)-1H-pyrazol-3-yl]-phenyl]methyl]formamide]: the pest or weed control at 200 ppm stood at 97% in experiment [1]; 0% in experiment [2]; 99% in the experiment on Septoria nodorum; 78% in the experiment with Septoria tritici; 0% with Botrytis cinerea.

`COC(=O)NCc1cc(-c2ccn(-c3ccc4c(c3)CC(O)CO4)n2)ccc1Cl` (stereo not shown) [Compound 30, methyl N-[[2-chloro-5-[1-(3,4-dihydro-3-hydroxy-2H-1-benzopyran-6-yl)-1H-pyrazol-3-yl]phenyl]methyl]carbamate]: the pest or weed control at 200 ppm in experiment [1] turned out to be 100%; in experiment [2], 9%; with Septoria nodorum, 99%; in the experiment with Septoria tritici, 78%; with Botrytis cinerea, 0%.

Consider `COC(=O)NCc1cc(-n2ccc(-c3ccc4c(c3)OCCO4)n2)ccc1Cl` [Compound 7, methyl N-[[2-chloro-5-[3-(2,3-dihydro-1,4-benzodioxin-6-yl)-1H-pyrazol-1-yl]-phenyl]methyl]carbamate], for which the pest or weed control at 200 ppm in experiment [1] worked out at 100%; in experiment [2] it was 100%; in the experiment on Septoria nodorum, 100%; in the experiment with Septoria tritici, 100%; in the experiment with Botrytis cinerea it was 98%.

Take `COC(=O)NCc1cc(-n2ccc(-c3ccc4c(c3)OCO4)n2)ccc1Cl` [Compound 6, methyl N-[[5-[3-(1,3-benzodioxol-5-yl)-1H-pyrazol-1-yl]-2-chlorophenyl]-methyl]carbamate]: the pest or weed control at 200 ppm in experiment [1] came to 100%; in experiment [2], 100%; with Septoria nodorum it was 100%; in the experiment on Septoria tritici, 99%; with Botrytis cinerea, 91%.

As to `CC(=O)NCc1cc(-n2ccc(-c3ccc4c(c3)CCCO4)n2)ccc1Cl` [Compound 8, N-[[2-chloro-5-[3-(3,4-dihydro-2H-1-benzopyran-6-yl)-1H-pyrazol-1-yl]phenyl]methyl]acetamide], the pest or weed control at 200 ppm in experiment [1] came out at 100%; in experiment [2] it was 26%; in the experiment with Septoria nodorum it was 100%; in the experiment on Septoria tritici it was 98%; in the experiment on Botrytis cinerea it was 73%.

For the compound `CNC(=O)NCc1cc(-n2ccc(-c3ccc4c(c3)CCCO4)n2)ccc1Cl` [Compound 9, N-[[2-chloro-5-[3-(3,4-dihydro-2H-1-benzopyran-6-yl)-1H-pyrazol-1-yl]phenyl]methyl]-N′-methylurea], the pest or weed control at 200 ppm in experiment [1] was 88%; in experiment [2], 8%; in the experiment on Septoria nodorum, 100%; in the experiment with Septoria tritici, 79%; with Botrytis cinerea it was 0%.

With `COC(=O)NCc1cc(-n2ccc(-c3ccc4c(c3)CCCO4)n2)ccc1Cl` [Compound 5, methyl N-[[2-chloro-5-[3-(3,4-dihydro-2H-1-benzopyran-6-yl)-1H-pyrazol-1-yl]phenyl]methyl]carbamate], the pest or weed control at 200 ppm came to 100% in experiment [1]; 100% in experiment [2]; 100% in the experiment with Septoria nodorum; 100% with Septoria tritici; 98% in the experiment on Botrytis cinerea.

With `COC(=O)NCc1cc(-n2ccc(-c3ccc4c(c3)CCCO4)n2)ccc1F` [Compound 11, methyl N-[[5-[3-(3,4-dihydro-2H-1-benzopyran-6-yl)-1H-pyrazol-1-yl]-2-fluorophenyl]methyl]carbamate], the pest or weed control at 200 ppm worked out at 100% in experiment [1]; 100% in experiment [2]; 100% in the experiment on Septoria nodorum; 100% in the experiment with Septoria tritici; 0% with Botrytis cinerea.

On to `COC(=O)NCc1cc(-c2ccn(-c3ccc4c(c3)CCCO4)n2)ccc1F` [Compound 12, methyl N-[[5-[1-(3,4-dihydro-2H-1-benzopyran-6-yl)-1H-pyrazol-3-yl]-2-fluorophenyl]methyl]carbamate], for which the pest or weed control at 200 ppm in experiment [1] worked out at 100%; in experiment [2], 100%; with Septoria nodorum it was 100%; in the experiment with Septoria tritici, 100%; in the experiment with Botrytis cinerea, 0%.

Turning to `COC(=O)NCc1cc(-c2ccn(-c3ccc4c(c3)CC(=O)CO4)n2)ccc1Cl` [Compound 29, methyl N-[[2-chloro-5-[1-(3,4-dihydro-3-oxo-2H-1-benzopyran-6-yl)-1H-pyrazol-3-yl]phenyl]methyl]carbamate], the pest or weed control at 200 ppm in experiment [1] stood at 99%; in experiment [2] it was 0%; in the experiment with Septoria nodorum, 99%; with Septoria tritici, 10%; in the experiment on Botrytis cinerea it was 0%.

With `COC(=O)NCc1cc(-c2ccn(-c3ccc4c(c3)CCCO4)n2)ccc1C` [Compound 20, methyl N-[[5-[1-(3,4-dihydro-2H-1-benzopyran-6-yl)-1H-pyrazol-3-yl]-2-methylphenyl]methyl]carbamate], the pest or weed control at 200 ppm in experiment [1] turned out to be 100%; in experiment [2], 100%; with Septoria nodorum, 100%; in the experiment with Septoria tritici, 100%; with Botrytis cinerea, 95%.
